Test results taken from PubChem BioAssay (NCI).
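Cells were grown in 96-well plates and exposed to each compound for 48 hours at five concentrations; endpoints were interpolated linearly between bracketing concentrations, or set to the highest concentration if not reached. At the GI50, growth is halved. TGI denotes the concentration required for complete inhibition of growth.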

Assays:
Assay in all cases: inhibition of tumour cell growth, NCI panel, 48 h
HOP-92 NSCLC = system: HOP-92 NSCLC
NCI-H460 lung = system: NCI-H460 lung
MCF7 breast = system: MCF7 breast
DU-145 prostate = system: DU-145 prostate
TK-10 renal = system: TK-10 renal
ACHN renal = system: ACHN renal
HOP-62 NSCLC = system: HOP-62 NSCLC
NCI-H522 lung = system: NCI-H522 lung
A549 NSCLC = system: A549 NSCLC
HT29 colon = system: HT29 colon
SK-MEL-5 melanoma = system: SK-MEL-5 melanoma
SF-539 CNS = system: SF-539 CNS
RPMI-8226 leukemia = system: RPMI-8226 leukemia
OVCAR-3 ovarian = system: OVCAR-3 ovarian
HCT-15 colon = system: HCT-15 colon
LOX IMVI melanoma = system: LOX IMVI melanoma
NCI-H226 lung = system: NCI-H226 lung
CAKI-1 renal = system: CAKI-1 renal
BT-549 breast = system: BT-549 breast
CCRF-CEM leukemia = system: CCRF-CEM leukemia
A498 renal = system: A498 renal
M14 melanoma = system: M14 melanoma
MDA-MB-435 = system: MDA-MB-435
OVCAR-4 ovarian = system: OVCAR-4 ovarian
PC-3 prostate = system: PC-3 prostate
NCI/ADR-RES ovarian = system: NCI/ADR-RES ovarian
SW-620 colon = system: SW-620 colon
RXF 393 renal = system: RXF 393 renal
NCI-H23 lung = system: NCI-H23 lung
786-0 renal = system: 786-0 renal
UACC-62 melanoma = system: UACC-62 melanoma
K-562 leukemia = system: K-562 leukemia
SF-295 CNS = system: SF-295 CNS
UO-31 renal = system: UO-31 renal
HCC-2998 colon = system: HCC-2998 colon
OVCAR-8 ovarian = system: OVCAR-8 ovarian
IGROV1 ovarian = system: IGROV1 ovarian
SN12C renal = system: SN12C renal
HCT-116 colon = system: HCT-116 colon
U251 CNS = system: U251 CNS
SK-MEL-28 melanoma = system: SK-MEL-28 melanoma
MALME-3M melanoma = system: MALME-3M melanoma
SK-MEL-2 melanoma = system: SK-MEL-2 melanoma
SF-268 CNS = system: SF-268 CNS
KM12 colon = system: KM12 colon
EKVX NSCLC = system: EKVX NSCLC
OVCAR-5 ovarian = system: OVCAR-5 ovarian
UACC-257 melanoma = system: UACC-257 melanoma
HS 578T breast = system: HS 578T breast
MDA-MB-231 breast = system: MDA-MB-231 breast
SNB-75 CNS = system: SNB-75 CNS
SK-OV-3 ovarian = system: SK-OV-3 ovarian
SNB-19 CNS = system: SNB-19 CNS
SR leukemia = system: SR leukemia
MOLT-4 leukemia = system: MOLT-4 leukemia
T-47D breast = system: T-47D breast
COLO 205 colon = system: COLO 205 colon

`COc1ccc(OC)c([N+](=O)[O-])c1-c1nc2sc(C)cn2c1/C=N/N=C(N)N` was tested, and the TGI (HOP-92 NSCLC) was 47.8 µM, the TGI (NCI-H460 lung) was > 100 µM and the TGI (MCF7 breast) was > 100 µM. For the same compound, the TGI (DU-145 prostate) was > 100 µM, the TGI (TK-10 renal) was 43.3 µM and the TGI (ACHN renal) was > 100 µM. For the same compound, the TGI (HOP-62 NSCLC) was > 100 µM, the TGI (NCI-H522 lung) was 46.5 µM and the TGI (A549 NSCLC) was > 100 µM. For the same compound, the TGI (HT29 colon) was 50.1 µM, the TGI (SK-MEL-5 melanoma) was 49.9 µM and the TGI (SF-539 CNS) was > 100 µM. For the same compound, the TGI (RPMI-8226 leukemia) was > 100 µM, the TGI (OVCAR-3 ovarian) was 85.6 µM and the TGI (HCT-15 colon) was > 100 µM. For the same compound, the TGI (LOX IMVI melanoma) was > 100 µM, the TGI (NCI-H226 lung) was 92.7 µM and the TGI (CAKI-1 renal) was 84.1 µM. The TGI (BT-549 breast) was 41.9 µM, the TGI (CCRF-CEM leukemia) was > 100 µM and the TGI (A498 renal) was 78 µM. For the same compound, the TGI (M14 melanoma) was > 100 µM, the TGI (MDA-MB-435) was 56.7 µM and the TGI (OVCAR-4 ovarian) was 47.3 µM. The TGI (PC-3 prostate) was > 100 µM, the TGI (NCI/ADR-RES ovarian) was > 100 µM and the TGI (SW-620 colon) was > 100 µM. For the same compound, the TGI (RXF 393 renal) was 76.1 µM, the TGI (NCI-H23 lung) was 66 µM and the TGI (786-0 renal) was > 100 µM. It also gave a TGI (UACC-62 melanoma) of 69.3 µM, a TGI (K-562 leukemia) of 28.7 µM and a TGI (SF-295 CNS) of 57.1 µM. For the same compound, the TGI (UO-31 renal) was > 100 µM, the TGI (HCC-2998 colon) was 60.3 µM and the TGI (OVCAR-8 ovarian) was 76.8 µM. The TGI (IGROV1 ovarian) was 33 µM, the TGI (SN12C renal) was 90.1 µM and the TGI (HCT-116 colon) was > 100 µM. The TGI (U251 CNS) was > 100 µM, the TGI (SK-MEL-28 melanoma) was 43.5 µM and the TGI (MALME-3M melanoma) was 44.3 µM. For the same compound, the TGI (SK-MEL-2 melanoma) was 60.2 µM, the TGI (SF-268 CNS) was > 100 µM and the TGI (KM12 colon) was 72.9 µM. For the same compound, the TGI (EKVX NSCLC) was > 100 µM, the TGI (OVCAR-5 ovarian) was > 100 µM and the TGI (UACC-257 melanoma) was 47 µM. The TGI (HS 578T breast) was 97.9 µM and the TGI (MDA-MB-231 breast) was 84.4 µM.

`O=C(/C=C(/C=C/c1csc2ccccc12)OB(F)F)/C=C/c1csc2ccccc12` was tested, and the GI50 (NCI-H460 lung) was > 50 µM, the TGI (NCI-H460 lung) was > 50 µM and the GI50 (MCF7 breast) was 1.06 µM. The TGI (MCF7 breast) was > 50 µM, the GI50 (HOP-62 NSCLC) was > 50 µM and the TGI (HOP-62 NSCLC) was > 50 µM. For the same compound, the GI50 (A549 NSCLC) was > 50 µM, the TGI (A549 NSCLC) was > 50 µM and the GI50 (NCI-H226 lung) was > 50 µM. The TGI (NCI-H226 lung) was > 50 µM, the GI50 (CCRF-CEM leukemia) was 0.244 µM and the TGI (CCRF-CEM leukemia) was > 50 µM. For the same compound, the GI50 (A498 renal) was > 50 µM, the TGI (A498 renal) was > 50 µM and the GI50 (SNB-75 CNS) was 2.79 µM. The TGI (SNB-75 CNS) was > 50 µM, the GI50 (SF-295 CNS) was > 26.2 µM and the TGI (SF-295 CNS) was > 50 µM. For the same compound, the GI50 (SK-OV-3 ovarian) was > 50 µM, the TGI (SK-OV-3 ovarian) was > 50 µM and the GI50 (SNB-19 CNS) was 3.62 µM. For the same compound, the TGI (SNB-19 CNS) was > 50 µM, the GI50 (HS 578T breast) was 2.06 µM and the TGI (HS 578T breast) was > 50 µM. The GI50 (SR leukemia) was 0.23 µM and the TGI (SR leukemia) was > 50 µM.

For `c1ccc2c(Nc3ccc4c(c3)OCO4)c3ccoc3nc2c1`, the GI50 (HOP-92 NSCLC) was 12.7 µM, the TGI (HOP-92 NSCLC) was 43.3 µM and the GI50 (NCI-H460 lung) was 16.5 µM. For the same compound, the TGI (NCI-H460 lung) was > 100 µM, the GI50 (MCF7 breast) was 12.6 µM and the TGI (MCF7 breast) was > 100 µM. It also gave a GI50 (DU-145 prostate) of 14 µM, a TGI (DU-145 prostate) of 31.2 µM and a GI50 (TK-10 renal) of 19.4 µM. The TGI (TK-10 renal) was 42.9 µM, the GI50 (ACHN renal) was 20.2 µM and the TGI (ACHN renal) was 70.3 µM. For the same compound, the GI50 (HOP-62 NSCLC) was 15.4 µM, the TGI (HOP-62 NSCLC) was 32.3 µM and the GI50 (NCI-H522 lung) was 27.2 µM. The TGI (NCI-H522 lung) was > 100 µM, the GI50 (MOLT-4 leukemia) was 5.69 µM and the TGI (MOLT-4 leukemia) was > 100 µM. The GI50 (A549 NSCLC) was 6.96 µM, the TGI (A549 NSCLC) was 35.8 µM and the GI50 (SK-MEL-5 melanoma) was 8.85 µM. The TGI (SK-MEL-5 melanoma) was 31.2 µM, the GI50 (RPMI-8226 leukemia) was 3.26 µM and the TGI (RPMI-8226 leukemia) was 25.6 µM. The GI50 (OVCAR-3 ovarian) was 15.5 µM, the TGI (OVCAR-3 ovarian) was 36.6 µM and the GI50 (HCT-15 colon) was 14.7 µM. The TGI (HCT-15 colon) was 45.6 µM, the GI50 (LOX IMVI melanoma) was 17.9 µM and the TGI (LOX IMVI melanoma) was 41.7 µM. For the same compound, the GI50 (NCI-H226 lung) was 25.5 µM, the TGI (NCI-H226 lung) was > 100 µM and the GI50 (CAKI-1 renal) was 12.3 µM. For the same compound, the TGI (CAKI-1 renal) was 33.3 µM, the GI50 (CCRF-CEM leukemia) was 15.2 µM and the TGI (CCRF-CEM leukemia) was > 100 µM. For the same compound, the GI50 (A498 renal) was 14.4 µM, the TGI (A498 renal) was 29.1 µM and the GI50 (M14 melanoma) was 14.3 µM. The TGI (M14 melanoma) was 29.8 µM, the GI50 (MDA-MB-435) was 3.97 µM and the TGI (MDA-MB-435) was 14.4 µM. The GI50 (T-47D breast) was 29.3 µM, the TGI (T-47D breast) was > 100 µM and the GI50 (OVCAR-4 ovarian) was 29.4 µM. The TGI (OVCAR-4 ovarian) was > 100 µM, the GI50 (PC-3 prostate) was 18.9 µM and the TGI (PC-3 prostate) was 95.5 µM. The GI50 (NCI/ADR-RES ovarian) was 7.66 µM, the TGI (NCI/ADR-RES ovarian) was 75.5 µM and the GI50 (RXF 393 renal) was 3.53 µM. For the same compound, the TGI (RXF 393 renal) was 23.1 µM, the GI50 (NCI-H23 lung) was 10.9 µM and the TGI (NCI-H23 lung) was 27.3 µM. The GI50 (786-0 renal) was 17.3 µM, the TGI (786-0 renal) was 40.3 µM and the GI50 (COLO 205 colon) was 20.2 µM. For the same compound, the TGI (COLO 205 colon) was > 100 µM, the GI50 (UACC-62 melanoma) was 13.9 µM and the TGI (UACC-62 melanoma) was 33.1 µM. It also gave a GI50 (K-562 leukemia) of 3.27 µM, a TGI (K-562 leukemia) of 27.8 µM and a GI50 (SF-295 CNS) of 14.7 µM. The TGI (SF-295 CNS) was 34.3 µM, the GI50 (SK-OV-3 ovarian) was 22.7 µM and the TGI (SK-OV-3 ovarian) was 99.7 µM. For the same compound, the GI50 (UO-31 renal) was 23.6 µM, the TGI (UO-31 renal) was > 100 µM and the GI50 (HCC-2998 colon) was 12.5 µM. For the same compound, the TGI (HCC-2998 colon) was 29.6 µM, the GI50 (OVCAR-8 ovarian) was 12.6 µM and the TGI (OVCAR-8 ovarian) was 46.4 µM. For the same compound, the GI50 (IGROV1 ovarian) was 31.5 µM, the TGI (IGROV1 ovarian) was > 100 µM and the GI50 (SN12C renal) was 24.2 µM. For the same compound, the TGI (SN12C renal) was 82.1 µM, the GI50 (HCT-116 colon) was 14.7 µM and the TGI (HCT-116 colon) was 37.3 µM. The GI50 (U251 CNS) was 17.6 µM, the TGI (U251 CNS) was 41.3 µM and the GI50 (SNB-19 CNS) was 26.5 µM. For the same compound, the TGI (SNB-19 CNS) was 81.3 µM, the GI50 (SK-MEL-28 melanoma) was 19.2 µM and the TGI (SK-MEL-28 melanoma) was 58.6 µM. It also gave a GI50 (MALME-3M melanoma) of 15.9 µM, a TGI (MALME-3M melanoma) of 34.3 µM and a GI50 (SK-MEL-2 melanoma) of 26.4 µM. The TGI (SK-MEL-2 melanoma) was > 100 µM, the GI50 (SF-268 CNS) was 15.6 µM and the TGI (SF-268 CNS) was 51.6 µM. For the same compound, the GI50 (KM12 colon) was 14.2 µM, the TGI (KM12 colon) was 35.2 µM and the GI50 (OVCAR-5 ovarian) was 25.9 µM. For the same compound, the TGI (OVCAR-5 ovarian) was 60.9 µM, the GI50 (HS 578T breast) was > 100 µM and the TGI (HS 578T breast) was > 100 µM. For the same compound, the GI50 (SR leukemia) was 3.98 µM and the TGI (SR leukemia) was 29.3 µM.
